The text below walks through data of ChEMBL document CHEMBL1158551, “Click reaction synthesis of carbohydrate derivatives from ristocetin aglycon with antibacterial and antiviral activity” (Bioorg Med Chem Lett, 2010).

Values after ≈ are worked out from the molar mass of the structure shown. Active and inactive are the calls of the source. The rule behind the calls is not given here.

Series [1] deals with Influenza A virus. Description: Antiviral activity against influenza A virus H1N1 assessed as cell viability by cell based MTS assay. The format is functional, organism-based. On the technique in general: Tetrazolium dyes change colour on reduction, which living cells bring about.
Series [2] relates to Influenza A virus. Description: Antiviral activity against Influenza A virus H3N2 assessed as inhibition of viral induced cytopathic effect. Type of series: functional, organism-based.
In series [3] the test system is Influenza A virus. Description: Antiviral activity against influenza A virus H1N1 assessed as inhibition of viral induced cytopathic effect. The format is functional, organism-based. On the technique in general: Cytopathic effects are the visible damage that an infection or toxin causes in cultured cells.
In series [4] the test system is Influenza A virus. Description: Antiviral activity against Influenza A virus H3N2 assessed as cell viability by cell based MTS assay. The format is functional, organism-based.
In series [5] the test system is Influenza B virus. Description: Antiviral activity against influenza B virus assessed as inhibition of viral induced cytopathic effect. The format is functional, organism-based.
Series [6] can be described thus: Toxicity assessed as increase of ristocetin-induced platelet aggregation. Type of series: cell-based.
Series [7] relates to Influenza B virus. Description: Antiviral activity against influenza B virus assessed as cell viability by cell based MTS assay. Type of series: functional, organism-based.
Series [8] concerns Staphylococcus aureus. Description: Antibacterial activity against methicillin-[…] Staphylococcus aureus ATCC 33591 by broth microdilution method. The format is functional. On the technique in general: In broth dilution the organism is exposed to a series of concentrations in liquid medium.
Series [9] has as its system Staphylococcus aureus. Description: Antibacterial activity against methicillin-[…] Staphylococcus aureus ATCC 29213 by broth microdilution method. Type of series: functional.
Series [10] relates to Enterococcus faecalis. Description: Antibacterial activity against vancomycin-resistant and teicoplanin-sensitive Enterococcus faecalis ATCC 5129 expressing VanB gene by broth microdilution method. The format is functional.
Series [11] concerns Enterococcus faecalis. Description: Antibacterial activity against vancomycin and teicoplanin-resistant Enterococcus faecalis 15376 expressing VanA gene by broth microdilution method. Type of series: functional.
A further series deals with Bacillus subtilis. Description: Antibacterial activity against Bacillus subtilis ATCC 6633 by broth microdilution method. Type of series: functional.
The subject of the next series is Platelet. Description: Inhibition of ristocetin-induced platelet aggregation at 0.1 mg/ml. Type of series: functional, cell-based.
Series [12] has as its system Enterococcus faecalis. Description: Antibacterial activity against vancomycin and teicoplanin-sensitive Enterococcus faecalis ATCC 29212 by broth microdilution method. The format is functional.
The subject of series [13] is Staphylococcus epidermidis. Description: Antibacterial activity against biofilm positive Staphylococcus epidermidis ATCC 35984. The format is functional.
In series [14] the test system is Staphylococcus epidermidis. Description: Antibacterial activity against Staphylococcus epidermidis by broth microdilution method. The format is functional.

On to `COC(=O)[C@H]1NC(=O)[C@H]2NC(=O)[C@H](NC(=O)[C@@H]3NC(=O)[C@H]4NC(=O)[C@H](NC(=O)[C@H](n5cc(CO[C@@H]6O[C@@H](C)[C@H](O)[C@@H](O)[C@H]6O)nn5)c5ccc(O)c(c5)Oc5cc4cc(O)c5C)[C@H](O)c4ccc(cc4)Oc4cc3cc(c4O)Oc3ccc(cc3)[C@H]2O)c2ccc(O)c(c2)-c2c(O)cc(O)cc21`, for which the EC50 with Influenza A virus [1], in the series on Influenza A virus [2], with Influenza A virus [3], in the series on Influenza A virus [4], in the series on Influenza B virus [5] and with Influenza B virus [7] was more than 100 µM in each case. Also, the Activity entry in series [6] is “Toxic”.
`COC(=O)[C@@H]1NC(=O)[C@H]2NC(=O)[C@H](NC(=O)[C@@H]3NC(=O)[C@H]4NC(=O)[C@H](NC(=O)[C@H](n5cc(CO[C@H]6O[C@H](CO)[C@@H](O)[C@H](O)[C@@H]6O)nn5)c5ccc(O)c(c5)Oc5cc4cc(O)c5C)[C@H](O)c4ccc(cc4)Oc4cc3cc(c4O)Oc3ccc(cc3)[C@H]2O)c2ccc(O)c(c2)-c2c(O)cc(O)cc21`: the MBC against Staphylococcus aureus [8] stood at 16 µg/mL (≈ 11.3 µM); against Enterococcus faecalis [10], 256 µg/mL (≈ 180 µM); against Enterococcus faecalis [11] it was 64 µg/mL (≈ 45.1 µM); with Bacillus subtilis it was 4 µg/mL (≈ 2.82 µM); in the series on Enterococcus faecalis [12], 256 µg/mL (≈ 180 µM); in series [13], 8 µg/mL (≈ 5.64 µM). Besides, the MBC in [14] stood at 8 µg/mL (≈ 5.64 µM). For the same compound, the MIC in the series with Staphylococcus aureus [8] stood at 4 µg/mL (≈ 2.82 µM); in the series with Staphylococcus aureus [9] it was 2 µg/mL (≈ 1.41 µM); in the series with Enterococcus faecalis [10], 16 µg/mL (≈ 11.3 µM); in the series on Enterococcus faecalis [11] it was 16 µg/mL (≈ 11.3 µM); against Bacillus subtilis it was 4 µg/mL (≈ 2.82 µM); in the series with Enterococcus faecalis [12], 8 µg/mL (≈ 5.64 µM). Besides, the MIC in series [13] and in series [14] was 4 µg/mL (≈ 2.82 µM) throughout. In addition, the EC50 in the series on Influenza A virus [1] is 22 µM; in the series with Influenza A virus [2], not below 45 µM; in the series with Influenza A virus [3] it was 10 µM; in the series on Influenza A virus [4], not below 46 µM; in the series with Influenza B virus [5] it was not below 45 µM; in the series on Influenza B virus [7] it was not below 50 µM. In the series on Platelet, the inhibition entry is “inactive”.
As to `COC(=O)[C@@H]1NC(=O)[C@H]2NC(=O)[C@H](NC(=O)[C@@H]3NC(=O)[C@H]4NC(=O)[C@H](NC(=O)[C@H](n5cc(CO[C@H]6O[C@H](CO)[C@@H](O)[C@H](O)[C@H]6NC(C)=O)nn5)c5ccc(O)c(c5)Oc5cc4cc(O)c5C)[C@H](O)c4ccc(cc4)Oc4cc3cc(c4O)Oc3ccc(cc3)[C@H]2O)c2ccc(O)c(c2)-c2c(O)cc(O)cc21`, the MBC against Staphylococcus aureus [8] was 4 µg/mL (≈ 2.74 µM); against Staphylococcus aureus [9] it was 2 µg/mL (≈ 1.37 µM); against Enterococcus faecalis [10] it was 256 µg/mL (≈ 175 µM); with Enterococcus faecalis [11], 256 µg/mL (≈ 175 µM); against Bacillus subtilis, 8 µg/mL (≈ 5.48 µM); with Enterococcus faecalis [12] it was 256 µg/mL (≈ 175 µM). For the same compound, the MBC was 2 µg/mL (≈ 1.37 µM) in series [13] and 4 µg/mL (≈ 2.74 µM) in [14]. Also, the MIC against Staphylococcus aureus [8] was determined as 4 µg/mL (≈ 2.74 µM); in the series on Staphylococcus aureus [9], 2 µg/mL (≈ 1.37 µM); against Enterococcus faecalis [10], 16 µg/mL (≈ 11 µM); against Enterococcus faecalis [11] it was 8 µg/mL (≈ 5.48 µM); against Bacillus subtilis it was 4 µg/mL (≈ 2.74 µM); in the series with Enterococcus faecalis [12] it was 8 µg/mL (≈ 5.48 µM). In addition, the MIC in series [13] and in series [14] was 2 µg/mL (≈ 1.37 µM) in each case. In addition, the concentration for a half-maximal effect (EC50) with Influenza A virus [1] was 8.7 µM; in the series with Influenza A virus [2], not below 45 µM; in the series on Influenza A virus [3], 9 µM; in the series with Influenza A virus [4], not below 72 µM; with Influenza B virus [5], 32 µM; in the series with Influenza B virus [7], 40 µM. For the same compound, the inhibition entry in the series with Platelet is “inactive”.
For `COC(=O)[C@@H]1NC(=O)[C@H]2NC(=O)[C@H](NC(=O)[C@@H]3NC(=O)[C@H]4NC(=O)[C@H](NC(=O)[C@H](n5cc(CO[C@H]6O[C@H](CO)[C@@H](O)[C@H](O)[C@H]6O)nn5)c5ccc(O)c(c5)Oc5cc4cc(O)c5C)[C@H](O)c4ccc(cc4)Oc4cc3cc(c4O)Oc3ccc(cc3)[C@H]2O)c2ccc(O)c(c2)-c2c(O)cc(O)cc21`, the MBC with Staphylococcus aureus [8] came out at 128 µg/mL (≈ 90.2 µM); against Staphylococcus aureus [9], 256 µg/mL (≈ 180 µM); against Enterococcus faecalis [10], 256 µg/mL (≈ 180 µM); against Enterococcus faecalis [11], 256 µg/mL (≈ 180 µM); in the series with Bacillus subtilis, 8 µg/mL (≈ 5.64 µM); against Enterococcus faecalis [12], 256 µg/mL (≈ 180 µM). Further, the MBC in series [13] and in series [14] was 4 µg/mL (≈ 2.82 µM) in each case. For the same compound, the MIC with Staphylococcus aureus [8] was found to be 2 µg/mL (≈ 1.41 µM); against Staphylococcus aureus [9] it was 2 µg/mL (≈ 1.41 µM); against Enterococcus faecalis [10], 8 µg/mL (≈ 5.64 µM); with Enterococcus faecalis [11] it was 4 µg/mL (≈ 2.82 µM); in the series with Bacillus subtilis, 2 µg/mL (≈ 1.41 µM); against Enterococcus faecalis [12], 4 µg/mL (≈ 2.82 µM). In addition, the MIC in series [13] came to 2 µg/mL (≈ 1.41 µM); in series [14], 4 µg/mL (≈ 2.82 µM). In addition, the EC50 in the series on Influenza A virus [1] is 16 µM; in the series on Influenza A virus [2], not below 45 µM; in the series with Influenza A virus [3], 14 µM; in the series with Influenza A virus [4] it was not below 30 µM; in the series with Influenza B virus [5], 32 µM; in the series on Influenza B virus [7], 33 µM. Moreover, the inhibition entry with Platelet was “Active”.

As usually defined, the EC50 is the concentration at which the effect is half-maximal.
